Measurements as given in PubChem BioAssay (NCI).
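Protocol summary: plate cells (96-well), add compound at 5 concentrations, incubate 48 h, interpolate endpoints linearly. GI50 = concentration required for 50% inhibition of growth. TGI: total growth inhibition.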

Assays:
Test in all cases: growth of human tumour cells (NCI), 48 h; in the data active = GI50 below about 0.43 µM; inactive = the rest
[1] = system: NCI-H460 lung
[2] = system: NCI-H522 lung
[3] = system: NCI/ADR-RES ovarian
[4] = system: OVCAR-3 ovarian
[5] = system: OVCAR-4 ovarian
[6] = system: OVCAR-5 ovarian
[7] = system: OVCAR-8 ovarian
[8] = system: PC-3 prostate
[9] = system: RPMI-8226 leukemia
[10] = system: RXF 393 renal
[11] = system: SF-268 CNS
[12] = system: SF-295 CNS
[13] = system: SF-539 CNS
[14] = system: SK-MEL-2 melanoma
[15] = system: SK-MEL-28 melanoma
[16] = system: SK-MEL-5 melanoma
[17] = system: SK-OV-3 ovarian
[18] = system: SN12C renal
[19] = system: SNB-19 CNS
[20] = system: SNB-75 CNS
[21] = system: SR leukemia
[22] = system: SW-620 colon
[23] = system: T-47D breast
[24] = system: TK-10 renal
[25] = system: U251 CNS
[26] = system: UACC-257 melanoma
[27] = system: UACC-62 melanoma
[28] = system: UO-31 renal

CCNC(=O)[C@@H]1CCCN2C(=O)CC[C@H](NC(=O)[C@H](Cc3ccc(OP(=O)(O)O)cc3)NC(C)=O)C(=O)N12
> 25 µM: TGI [1] | TGI [2] | TGI [3] | TGI [4] | TGI [5] | TGI [6] | TGI [7] | TGI [8] | TGI [9] | TGI [10] | TGI [11] | TGI [12] | TGI [13] | TGI [14] | TGI [15] | TGI [16] | TGI [17] | TGI [18] | TGI [19] | TGI [20] | TGI [21] | TGI [22] | TGI [23] | TGI [24] | TGI [25] | TGI [26] | TGI [27] | TGI [28]
inactive: GI50 [1] > 25 µM | GI50 [2] > 25 µM | GI50 [3] > 25 µM | GI50 [4] > 25 µM | GI50 [5] > 25 µM | GI50 [6] > 25 µM | GI50 [7] > 25 µM | GI50 [8] > 25 µM | GI50 [9] > 25 µM | GI50 [10] > 25 µM | GI50 [11] > 25 µM | GI50 [12] > 25 µM | GI50 [13] > 25 µM | GI50 [14] > 25 µM | GI50 [15] > 25 µM | GI50 [16] > 25 µM | GI50 [17] > 25 µM | GI50 [18] > 25 µM | GI50 [19] > 25 µM | GI50 [20] > 25 µM | GI50 [21] > 25 µM | GI50 [22] > 25 µM | GI50 [23] > 25 µM | GI50 [24] > 25 µM | GI50 [25] > 25 µM | GI50 [26] > 25 µM | GI50 [27] > 25 µM | GI50 [28] > 25 µM
